Measured values from patent publication US6741954B2, “Selection method for odorants” (Symrise GmbH & Co. KG, priority 2000, dated 2004).
Like-named read-outs stand apart in the source and are kept apart here.

Experiments:
Type in all cases: physicochemical
[1] = Headspace above the candle wax: relative partition parameter (SPME-GC); conditions: log of amount in headspace relative to amount in candle wax; 5% odorant mixture, grated nonburning candle, SPME 15 min
Protocol: (§1) The procedure is analogous in all examples.
(§2) The example reflects the scent impression, which is perceived from a nonburning candle. The mixture of 39 odorants is incorporated into a candle in an amount of 5%. 20 g of the grated candle are transferred to a 100 ml Erlenmeyer flask sealed with a septum. The headspace above the candle is extracted using a SPME over 15 min. […] The analytical results are then used mathematically as described above.

[2] = Headspace above the washing powder: relative partition parameter (SPME-GC)
Protocol: as §1
as §2, with “freshly opened pack of laundry detergent.” for “nonburning candle.”, “in the above-mentioned washing powder” for “into a candle”, “0.5%.” for “5%.”, “washing powder” for “grated candle”, “shampoo” for “candle”

[3] = Headspace above the fresh gel room air freshener: relative partition parameter (SPME-GC); conditions: log of amount in headspace relative to amount in gel; 5% odorant mixture, 10 liter vessel, 1 h, SPME 15 min
Protocol: as §1
The example reflects the scent impression, which is perceived above a fresh gel room air freshener. The mixture of 39 odorants is incorporated into an air freshener in an amount of 5%. 100 g of the air freshener are placed in its customary presentation form in a large sealed 10 liter vessel. The air freshener is left to stand for one hour. The headspace above the air freshener is extracted using a SPME over 15 min. […] The analytical results are then used mathematically as described above.

[4] = Headspace above the shampoo: relative partition parameter (SPME-GC); conditions: log of amount in headspace relative to amount in shampoo; 1% odorant mixture, SPME 15 min
Protocol: as §1
as §2, with “freshly opened bottle of shampoo.” for “nonburning candle.”, “the above-mentioned shampoo (1)” for “a candle”, “1%.” for “5%.”, “shampoo” for “grated candle”, “shampoo” for “candle”

[5] = Headspace above the soap bar: relative partition parameter (SPME-GC)
Protocol: as §1
The example reflects the scent impression, which is perceived from a fresh bar of soap. […] 20 g of the grated soap are transferred to a 100 ml Erlenmeyer flask sealed with a septum. The headspace above the shampoo is extracted using a SPME over 15 min. […] The analytical results are then used mathematically as described above.

[6] = Headspace above the solution of WC scented block cleaner: relative partition parameter (SPME-GC); conditions: log of amount in headspace above 1% solution in water relative to amount in WC block; 1% odorant mixture, SPME 15 min
Protocol: as §1
as §2, with “WC scented block cleaner.” for “nonburning candle.”, “the toilet block” for “a candle”, “1%. A 1% solution” for “5%. 20 g”, “toilet block in water is prepared. 20 ml of this solution” for “grated candle”, “shampoo” for “candle”, “by means of” for “using”

[7] = Headspace above the wet washed hair: relative partition parameter headspace/shampoo (SPME-GC)
Protocol: as §1
The example reflects the scent impression, which is perceived from freshly washed hair. The shampoo is prepared as is generally customary. The mixture of 39 odorants is incorporated into the above-mentioned shampoo (1st) in an amount of 1%. A hair tress (2.5 g) is washed in 100 ml of a 20% shampoo solution in water by immersing 5-10 times and stirring, and then rinsed in 100 ml of clear water by immersing it three times. The hair tress is carefully patted with thin cellulose. The moist hair tress is transferred to a 100 ml Erlenmeyer flask sealed with a septum and left to stand for 3 h. The headspace above the washed and rinsed hair tress is extracted over 15 min using solid phase microextraction (SPME). The SPME needle is desorbed in a GC injector, and a gas chromatogram is recorded. […] The analytical results are then used mathematically as described above.

[8] = log of amount in headspace relative to amount in washing powder, 0.5% odorant mixture, SPME 15 min
[9] = log of amount in headspace relative to amount in soap, 1.2% odorant mixture, grated soap, SPME 15 min
[10] = log of amount in headspace above wet washed hair relative to amount in shampoo, 1% odorant mixture, 3 h standing, SPME 15 min

| SMILES | Activity (logarithmic partition parameter above candle wax) [1] | Activity (logarithmic partition parameter above washing powder) [2, 8] | Activity (logarithmic partition parameter above gel room air fresheners) [3] | Activity (logarithmic partition parameter above shampoo) [4] | Activity (logarithmic partition parameter above soap) [5, 9] | Activity (logarithmic partition parameter above dissolved WC scented block cleaners) [6] | Activity (logarithmic partition parameter above wet hair) [7, 10] | Activity (logarithmic partition parameter above washing powder) [2] | Activity (logarithmic partition parameter above soap) [5] | Activity (logarithmic partition parameter above wet hair) [7] |
| --- | --- | --- | --- | --- | --- | --- | --- | --- | --- | --- |
| CC(=O)O[C@@H]1C[C@H]2CC[C@]1(C)C2(C)C (racemic) [Isobornyl acetate] | −0.588 | 0.061 | 0.392 | −0.026 | 0.147 | −0.434 | −0.741 | – | – | – |
| CC(=O)OCc1ccccc1 [Benzyl acetate] | −0.244 | 0.224 | 0.594 | −0.293 | 0.538 | −1.552 | −1.006 | – | – | – |
| OCc1ccccc1 [Benzyl alcohol] | −0.364 | −0.389 | 0.148 | −0.759 | −0.088 | – | −1.867 | – | – | – |
| O=C(OCc1ccccc1)c1ccccc1O [Benzyl salicylate] | – | −2.349 | – | – | – | −3.166 | – | – | – | – |
| C=C1C2CCC(C2)C1(C)C (stereo not drawn) [Camphene] | 0.783 | 0.357 | −0.116 | 0.777 | 0.392 | −1.348 | −0.721 | – | – | – |
| C[C@@H]1CC[C@H]2C(C)(C)[C@H]3C[C@@]12CC[C@@]3(C)O [Cedrol] | – | −1.547 | −1.761 | – | −2.090 | −1.348 | −2.475 | – | – | – |
| CC(=O)O[C@]1(C)CC[C@@]23C[C@@H]1C(C)(C)[C@@H]2CC[C@H]3C [Cedryl acetate] | – | – | −2.566 | – | – | −1.161 | – | −1.971 | −2.483 | −2.685 |
| CC(C)=CCCC(C)CCO (stereo not drawn) [Citronellol] | −1.159 | −0.780 | −0.158 | −1.406 | −0.787 | −1.575 | −1.818 | – | – | – |
| CC(=O)OC(C)(C)Cc1ccccc1 [DMBCA, dimethylbenzylcarbinyl acetate] | −0.856 | −0.041 | 0.125 | −0.513 | 0.059 | −0.992 | −1.127 | – | – | – |
| CCOC(=O)c1ccccc1C(=O)OCC [Diethyl phthalate] | −2.459 | −2.124 | −2.303 | – | −1.742 | – | – | – | – | – |
| C=CC(C)CCCC(C)(C)O (stereo not drawn) [Dihydromyrcenol] | −0.324 | 0.184 | 0.460 | −0.287 | 0.076 | −1.131 | −1.056 | – | – | – |
| C=CCc1ccc(O)c(OC)c1 [Eugenol] | −0.822 | −1.440 | −0.653 | – | −1.435 | −2.412 | −2.257 | – | – | – |
| CC(C)=CCC/C(C)=C/CO [Geraniol] | −1.273 | −0.976 | −0.365 | −1.839 | −0.952 | −2.045 | −2.043 | – | – | – |
| CCCCCC/C(C=O)=C\c1ccccc1 [Hexylcinnamaldehyde, alpha] | – | −1.559 | – | – | −2.176 | −1.413 | −2.690 | – | – | – |
| CC(CC=O)CCCC(C)(C)O (stereo not drawn) [Hydroxycitronellal] | −1.869 | −1.609 | −1.161 | – | −1.804 | – | −2.381 | – | – | – |
| CC(=O)/C=C/C1C(C)=CCCC1(C)C (stereo not drawn) [Ionone, alpha] | −1.441 | −0.697 | −0.515 | −1.157 | −0.701 | −1.152 | −1.559 | – | – | – |
| CC(=O)/C=C/C1=C(C)CCCC1(C)C [Ionone, beta] | −1.606 | −0.778 | −0.662 | −1.282 | −0.837 | −0.819 | −1.636 | – | – | – |
| CC(C)CCOC(=O)c1ccccc1O [Isoamyl salicylate] | – | −1.467 | −1.544 | −1.716 | −1.190 | −0.870 | −1.612 | – | – | – |
| C=C(C)[C@H]1CC=C(C)CC1 [Limonene D] | – | – | 0.062 | 0.965 | 0.748 | −1.102 | −0.183 | – | – | – |
